For series [1], the system named is AsPC-1. In words: Inhibition of proliferation of KRAS G12D mutant tumor cell line AsPC-1 (CellTiter-Glo). It counts as cell-based. The conditions noted are these: Homo sapiens, ASPC1, about 72 h. On the procedure:
1. Experimental objective: The inhibition activity of the example compounds on the proliferation of 5 KRAS G12D mutant cell lines SNU-1, HPAF-II, Panc0403, AsPC-1 and GP2D was determined. 2. Experimental instruments: • 2.1 Instruments: Microplate reader (BioTek Synergy H1); Pipette (Eppendorf & Rainin). • 2.2 Reagents: HPAF-II, PANC0403, AsPC-1 and GP2D were purchased from COBIOER BIOSCIENCES CO., LTD; SNU-1 was purchased from the cell bank of Chinese Academy of Sciences, Cell Titer-Glo was purchased from Promega, with a catalog number of G7573; RPMI 1640 was purchased from Gibco, with a catalog number of 22400089; DMEM was purchased from Gibco, with a catalog number of 11995065; FBS was purchased from Gibco, with a catalog number of 10091148; PBS was purchased from Gibco, with a catalog number of 10010023; trypsin was purchased from Gibco, with a catalog number of 25200056; cell culture plates were purchased from Corning Company, with a catalog number of 3610. 3. Experimental method: When SNU-1, HPAF-II, Panc0403, AsPC-1 or GP2D cells were cultured to the appropriate confluence, and the SNU-1, HPAF-II, Panc0403, AsPC-1 or GP2D cells were collected. The cells were adjusted to the appropriate cell density using complete culture medium, the cell suspension was plated onto a 96-well plate at 90 µL per well, and the plate was placed in the incubator at 37°C and 5% CO2 for adherent culture overnight. Solutions of the compound with different concentrations were formulated using DMSO and culture medium. A vehicle control was set up. The solutions of the compound were added to the 96-well plate at 10 µL per well, and the plate was placed in the incubator at 37°C and 5% CO2 for further culture for about 72 h. Then, CellTiter-Glo solution was added, and the obtained mixture was shaken and mixed evenly, incubated in the dark for 10 min, and read with a BioTek Synergy H1 microplate reader. 4. Experimental data processing method: The luminescence signal value was used to calculate the inhibition rate. Graphpad Prism software was used to fit the concentration and inhibition rate to a nonlinear regression curve, so as to obtain the IC50 value. 5. Experimental results: Table 2: Determination of the inhibition activity of the compounds on the proliferation of KRAS G12D mutant tumor cell line GP2D
On the technique in general: ATP-based viability assays read luminescence as a measure of living cells.

Series [2] in a line: Pharmacokinetic determination in mice (IV and PO, plasma, LCMS/MS). It counts as in vivo, Balb/c mice. Conditions: mouse, in vivo, PO, 30 mg/kg, male Balb/c mice, overnight fasting, plasma. The source says: • 1. Study objective: Balb/c mice were used as test animals to study the pharmacokinetic behavior of the compounds in mice (plasma) after oral administration. • 2. Test scheme • 2.1 Test drugs: The example compounds of the present invention, made in house; • 2.2 Test animals: Balb/c mice, male, purchased from Shanghai Jiesijie Experimental Animal Co., Ltd., animal production license number (SCXK (Shanghai) 2013-0006 N0.311620400001794). • 2.3 Drug formulation: Formulation of a drug for oral administration: 10% Captisol in 50 mM citrate buffer pH 5.0.
Formulation of 50 mM citric acid: 4.8 g of citric acid was weighed into a 1000 ml glass bottle, ultrapure water was added to 300 ml, and the mixture was magnetically stirred until completely dissolved, additional ultrapure water was then added to 500 ml to formulate 50 mM citric acid.
Formulation of a solution containing 50 mM citric acid (10% Captisol, PH = 5): 50 g of Captisol powder was weighed and added to a 1000 ml glass bottle, 300 ml of 50 mM citric acid was added, and the mixture was magnetically stirred until completely dissolved, then additional citric acid was added to 500 ml, and the PH was adjusted to 5 using 10 M NaOH.
The example compounds were weighed and added to a 4 mL glass bottle separately, 2.4 mL of the solution was added and the mixture was subjected to ultrasound treatment for 10 min to obtain a colorless clear solution with a concentration of 3 mg/mL.
Formulation of a drug for intravenous administration: 5%DMSO+10%Solutol HS15+85%PBS.
The example compounds were weighed, and 5% DMSO was added according to the total administration volume; the mixture was vortexed and sonicated for 2 min to ensure complete dissolution; then, 10% Solutol HS15 was added, and the mixture was vortexed and sonicated for 2 min to achieve complete dissolution; finally, 85% PBS was added, and the mixture was vortexed and sonicated for 5 min; the obtained mixture was filtered through a 0.22 um membrane to obtain a colorless, transparent, and clear solution with a concentration of 0.2 mg/mL.
3 Balb/c mice, male; After overnight fasting, the animals were administered orally (PO) at a dose of 30 mg/kg with an administration volume of 10 mL/kg.
3 Balb/C mice, male; After overnight fasting, the animals were administered intravenously (IV) at a dose of 1 mg/kg with an administration volume of 5 mL/kg.
0.04 mL of blood was collected from the orbit before administration and at 0.25 h, 0.5 h, 1 h, 2 h, 4 h, 6 h, 8 h, and 24 h after administration and placed in an EDTA-2K test tube, and the test tube was centrifuged at 6000 rpm for 6 min at 4°C to separate the plasma, which was stored at -20°C; the animals were fed 4 h after administration.
The final determination results obtained by applying the LCMS/MS method are shown in the table below: Table 6: Pharmacokinetic parameters of the compounds administered intravenously in mice

Series [3] deals with human colorectal cancer cell line (GP2D). In words: Anti-tumor efficacy in mouse transplanted tumor model of human colorectal cancer cell line (GP2D). Type of series: in vivo, mice (BALB/c nude). The conditions noted are these: 100mpk, PO*BID. The source says: 8-10 week old female conventional immunodeficient mice (BALB/c nude) with a body weight of 18 g-22 g were used as experimental animals, and a transplanted tumor model of human colorectal cancer cell line (GP2D) was used to conduct in vivo efficacy experiments to test the anti-tumor results of the example compounds after gavage administration.
The example compounds of the present invention, made in house.
A certain amount of the example compound was weighed, and an appropriate amount of 10% vehicle (Solutol HS15) was added. The mixture was stirred on a magnetic stirrer for 0.5 h to formulate a homogeneous suspension at the desired concentration.
The human colorectal cancer cell line (GP2D) was derived from COBIOER BIOSCIENCES CO., LTD, cultured on DMEM medium (Gibco, 11995-065) supplemented with 10% fetal calf serum (Gibco, 10091-148) and 1% penicillin/streptomycin (Gibco, 15140-122) and observed under a microscope (Thermo Fisher, 311). The cells were routinely passaged when the cells reached 80%-90% confluence in the culture flask. The passaged cells were cultured in a 37°C, 5% CO2 incubator (Thermo Fisher, 311).
Under aseptic conditions, human colorectal cancer cells (GP2D) in the logarithmic growth phase were harvested using 0.25% trypsin-EDTA (Gibco, 25200-056), washed and resuspended with phosphate buffer. The cell suspension was mixed with Matrigel (Corning, 356234) at a 1 : 1 ratio (v/v) and implanted subcutaneously into the right anterior dorsal region of immunodeficient mice (BALB/c nude). Each mouse was inoculated with 5*10^6 cells in a volume of 100 microliters (µL). After inoculation, when the tumor volume reached 100-200 mm^3, the mice would be evenly randomized into 5 groups based on the tumor size, with 5 mice per group, for in vivo efficacy experiments. The positive control group was the compound MRTX-1133, and the negative control group was the vehicle group.
Mode of administration: The positive control group was intraperitoneally injected, and the example compounds were administered orally.
Twice a week, the long and short diameters of the tumor were measured using a vernier caliper, and the tumor volume (mm^3) was calculated using the formula: V = 0.5*D*d*d, where D and d are the long and short diameters of the tumor, respectively. The anti-tumor efficacy was determined by dividing the average increase in tumor volume of compound-treated animals by the average increase in tumor volume of untreated animals. The calculation formula for tumor inhibition rate was: When there is no tumor regression, TGI(%) = 100-[(Vt-V0) administration group/(Vt-V0) vehicle control group]*100%. When tumor regression occurs, TGI(%) = [1-(V1-V0) administration group/V0 vehicle control group]* 100%. All animals were euthanized after the experiment.

In series [4] the test system is GP2D. Description: Inhibition of proliferation of KRAS G12D mutant tumor cell line GP2D (CellTiter-Glo). The conditions noted are these: Homo sapiens, GP2d, 72 h, read-out: GP2D IC50.
Series [5] relates to p-ERK in AGS cells. Description: Inhibition of p-ERK in AGS cells (LANCE Ultra phospho-ERK1/2 kit). It counts as cell-based. The conditions noted are these: Homo sapiens; AGS cells, 2 h with compound; read-out: AGS_pERK IC50. On the procedure:
1. Experimental objective: The inhibition activity of the example compounds on the phosphorylated ERK level in KRAS G12D mutant cells AGS was determined. 2. Experimental instruments: • 2.1 Instruments: Envison; Pipette (Eppendorf & Rainin) • 2.2 Reagents: AGS cells were purchased from COBIOER BIOSCIENCES CO., LTD, with a catalog number of CBP60476; Phosphorylated ERK1/2 (T202-Y204) LANCE Ultra Cellular Detection Kit was purchased from PerkinElmer, with a catalog number of TRF4000M; RPMI 1640 was purchased from Gibco, with a catalog number of 22400071; FBS was purchased from Gibco, with a catalog number of 10091148; PBS was purchased from Gibco, with a catalog number of 10010023; trypsin was purchased from Gibco, with a catalog number of 25200056; cell culture plates were purchased from Corning Company, with a catalog number of 3610; White opaque OptiPlate™-384 plates were purchased from PerkinElmer, with a catalog number of 6007290. 3. Experimental method: When AGS cells were cultured to appropriate confluence, the AGS cells were collected, and the cell density was adjusted to 4 × 10^5/mL using complete culture medium. The cell suspension was plated onto a 96-well plate at 100 µL per well, and the plate was placed in the incubator at 37°C and 5% CO2 for adherent culture overnight. Solutions of the compound with different concentrations were formulated using DMSO and complete culture medium, and a vehicle control was set up. The solutions of the compound were added to the 96-well plate at 25 µL per well, and the plate was placed in the incubator at 37°C and 5% CO2 for further culture for 2 h. Then, the supernatant of the cell culture plate was discarded, 50 µL of lysis buffer was added to each well, the cells were lysed at room temperature under shaking for 30 min, then placed in a centrifuge and centrifuged at 1000 rpm for 1 min. 15 µL of supernatant was transferred to a 384-well plate, 5 µL of detection mixture was added to each well (Eu-labeled anti-ERK1/2 (T202-Y204) Antibody at a final detection concentration of 0.5 nM and ULight labeled anti-ERK1/2 Antibody at a final detection concentration of 5 nM), centrifuged at 1000 rpm for 1 min, mixed evenly, and reacted at room temperature overnight. The plate was read using Envison and the signal values at the emission wavelengths of 620 nm and 665 nm were detected using a time-resolved fluorescence program. 4. […] Graphpad Prism software was used to fit the concentration and inhibition rate to a nonlinear regression curve, so as to obtain the IC50 value. Table 5: Inhibition activity of the compounds on p-ERK in AGS cells
Background: In TR-FRET formats the signal depends on donor and acceptor labels being close together.

Where a name gives a salt, the structure may show the parent alone.

By IC50 is commonly meant the concentration that gives 50% inhibition. One may read the Cmax as the peak of the concentration-time curve. For orientation: Tmax means the time at which the peak concentration occurs. On to `C#Cc1c(F)ccc2cc(O)cc(-c3nc4c5c(nc(OCC6(CN7CCC(=CF)C7)CC6)nc5c3F)N3C[C@H]5CC[C@H](N5)[C@H]3[C@H](C)O4)c12` [Example 131], for which, in series [1], the IC50 came out at 5 nM. The AUC(0-inf) in series [2] (read-out: AUC0-∞) came to 559 ng·h/mL. For the same compound, in series [2] (read-out: Cmax), the Cmax is 151 ng/mL. Moreover, the half-life in series [2] (read-out: T1/2 (converted)) was 18.3 h. In addition, the Tmax in series [2] (read-out: Tmax) was 1 h. In addition, the “Tumor volume (mm^3, Mean ± SD) Day 0” value in series [3] (Day 0) was found to be 167 mm^3. Moreover, in series [3] (Day 14), the “TGI(%) Day 14” value is reported as 127.11%; the “Tumor volume (mm^3, Mean ± SD) Day 14” value was 122 mm^3; the “ΔT/ΔC(%) Day 14” value was found to be 15.42%. Further, the IC50 in series [4] stood at 0.17 nM.
For the compound `[2H]C([2H])([2H])[C@@H]1Oc2nc(-c3cc(O)cc4ccc(F)c(C#C)c34)c(F)c3nc(OCC4(CN5CCC(=NOC)CC5)CC4)nc(c23)N2C[C@H]3CC[C@H](N3)[C@@H]12` [Example 338, 1-((1-((((5S,5aS,6S,9R)-2-(8-ethynyl-7-fluoro-3-hydroxynaphthalen-1-yl)-1-fluoro-5-deuteratedmethyl-5a,6,7,8,9,10-hexahydro-5H-4-oxa-3,10a,11,13, 14-pentaaza-6,9-methylenenaphtho[1,8-ab]heptalen-12-yl)oxo)methyl)cyclopropyl)methyl)piperidin-4-one O-methyloxime formate], the concentration for half-maximal inhibition (IC50) in series [5] came to 2.8 nM; in series [4], 0.34 nM.
